# Where a name gives a salt, the structure may show the parent alone.
# Tested on: dopaminergic neurons
# Procedure: RNAs isolated from NSCs and neurons with and without drug treatments were hybridized to Illumina HumanRef-8 BeadChip (Illumina, Inc., San Diego, Calif., performed by Microarray core facility at the Burnham Institute for Medical Research). The Illumina array data were normalized by the quantile method, and then transformed log 2 ratio values for a zero mean for expression values of each gene across all samples. The statistical and bioinformatics analyses were conducted by using R and the bioconductor package (www.bioconductor.org). The gene set enrichment analysis was conducted using the GSEA software (www.broad.mit.edu/gsea).
# The comparative results are then measured by a non-parametric, running sum statistic termed the enrichment score. The enrichment score significance is assessed by 1,000 permutation tests to compute the enrichment p-value.
# [1] = enriched in treated DA neurons, Nom P-Val 0.910714
# [2] = enriched in treated DA neurons, Nom P-Val 1
# [3] = enriched in untreated DA neurons, NOM p-val 0
# [4] = enriched in untreated DA neurons, NOM p-val 0.111111
# [5] = enriched in untreated DA neurons, NOM p-val 0.166667
# [6] = enriched in untreated DA neurons, NOM p-val 0.444444
# [7] = enriched in untreated DA neurons, NOM p-val 0.818182
# [8] = enriched in untreated DA neurons, NOM p-val 0.90625
# [9] = enriched in untreated DA neurons, NOM p-val 0.955556
# [10] = enriched in untreated DA neurons, NOM p-val 1
smiles,measurement,setting,value
CCCCc1oc2ccccc2c1C(=O)c1cc(I)c(OCCN(CC)CC)c(I)c1 [Amiodarone Hydrochloride],Nes: Transferase Activity Transferring Glycosyl Groups,"enriched in treated DA neurons, Nom P-Val 0.864865",0.8297
same,Nes: Cation Binding,"enriched in treated DA neurons, Nom P-Val 0.894737",0.7825
same,Nes: Calmodulin Binding,[1],0.6917
same,Nes: Protein N Terminus Binding,[1],0.7167
same,Nes: Guanyl Nucleotide Binding,"enriched in treated DA neurons, Nom P-Val 0.913044",0.72
same,Nes: Hydrolase Activity Acting On Ester Bonds,"enriched in treated DA neurons, Nom P-Val 0.924051",0.7747
same,Nes: Transcription Corepressor Activity,"enriched in treated DA neurons, Nom P-Val 0.942857",0.6958
same,Nes: Atpase Activity Coupled To Transmembrane Movement Of Ions,"enriched in treated DA neurons, Nom P-Val 0.944444",0.5935
same,Nes: Structural Molecule Activity,"enriched in treated DA neurons, Nom P-Val 0.963415",0.7324
same,Nes: Transferase Activity Transferring Alkyl Or Aryl Other Than Methyl Groups,"enriched in treated DA neurons, Nom P-Val 0.968254",0.6284
same,Nes: Actin Filament Binding,"enriched in treated DA neurons, Nom P-Val 0.983871",0.3138
same,Nes: Mrna Binding,"enriched in treated DA neurons, Nom P-Val 0.984375",0.4087
same,Nes: Transcription Factor Binding,"enriched in treated DA neurons, Nom P-Val 0.987013",0.742
same,Nes: Phosphoric Ester Hydrolase Activity,"enriched in treated DA neurons, Nom P-Val 0.9875",0.6959
same,Nes: Atpase Activity,[2],0.6528
same,Nes: Rna Binding,[2],0.4406
same,Nes: Translation Initiation Factor Activity,[2],0.3311
same,NES: Gtpase Binding,[3],−1.62
same,NES: Hydrolase Activity Hydrolyzing O Glycosyl Compounds,[3],−1.479
same,NES: Ras Gtpase Binding,"enriched in untreated DA neurons, NOM p-val 0.02",−1.585
same,NES: Cation Channel Activity,"enriched in untreated DA neurons, NOM p-val 0.027778",−1.394
same,NES: Small Gtpase Binding,"enriched in untreated DA neurons, NOM p-val 0.047619",−1.4967
same,NES: Gated Channel Activity,"enriched in untreated DA neurons, NOM p-val 0.051282",−1.491
same,NES: Ion Channel Activity,"enriched in untreated DA neurons, NOM p-val 0.060606",−1.2
same,NES: Hydrolase Activity Acting On Glycosyl Bonds,"enriched in untreated DA neurons, NOM p-val 0.08",−1.414
same,NES: Nucleobase Nucleoside Nucleotide Kinase Activity,"enriched in untreated DA neurons, NOM p-val 0.081081",−1.368
same,NES: Voltage Gated Channel Activity,"enriched in untreated DA neurons, NOM p-val 0.085714",−1.284
same,NES: Kinase Binding,"enriched in untreated DA neurons, NOM p-val 0.1",−1.316
same,NES: Exopeptidase Activity,"enriched in untreated DA neurons, NOM p-val 0.105263",−1.3223
same,NES: Metal Ion Transmembrane Transporter Activity,[4],−1.269
same,NES: Potassium Channel Activity,[4],−1.325
same,NES: Substrate Specific Channel Activity,"enriched in untreated DA neurons, NOM p-val 0.129032",−1.221
same,NES: Chromatin Binding,"enriched in untreated DA neurons, NOM p-val 0.142857",−1.239
same,NES: Gtpase Activator Activity,"enriched in untreated DA neurons, NOM p-val 0.157895",−1.222
same,NES: Phosphoprotein Phosphatase Activity,"enriched in untreated DA neurons, NOM p-val 0.162162",−1.15
same,NES: Electron Carrier Activity,[5],−1.204
same,NES: Voltage Gated Cation Channel Activity,[5],−1.174
same,NES: Transition Metal Ion Binding,"enriched in untreated DA neurons, NOM p-val 0.171429",−1.098
same,NES: Protein C Terminus Binding,"enriched in untreated DA neurons, NOM p-val 0.212121",−1.195
same,NES: Helicase Activity,"enriched in untreated DA neurons, NOM p-val 0.216216",−1.187
same,NES: Protein Complex Binding,"enriched in untreated DA neurons, NOM p-val 0.222222",−1.133
same,NES: Enzyme Binding,"enriched in untreated DA neurons, NOM p-val 0.233333",−1.04
same,NES: Ras Gtpase Activator Activity,"enriched in untreated DA neurons, NOM p-val 0.243902",−1.144
same,NES: S Adenosylmethionine Dependent Methyltransferase Activity,"enriched in untreated DA neurons, NOM p-val 0.25",−1.2358
same,NES: Ligand Gated Channel Activity,"enriched in untreated DA neurons, NOM p-val 0.263158",−1.236
same,NES: Cation Transmembrane Transporter Activity,"enriched in untreated DA neurons, NOM p-val 0.291667",−1.08
same,NES: Rho Gtpase Activator Activity,"enriched in untreated DA neurons, NOM p-val 0.297297",−1.16
same,NES: Rna Dependent Atpase Activity,"enriched in untreated DA neurons, NOM p-val 0.318182",−1.11
same,NES: Atp Dependent Helicase Activity,"enriched in untreated DA neurons, NOM p-val 0.324324",−1.133
same,NES: Methyltransferase Activity,"enriched in untreated DA neurons, NOM p-val 0.340909",−1.089
same,NES: Auxiliary Transport Protein Activity,"enriched in untreated DA neurons, NOM p-val 0.347826",−1.141
same,NES: Transcription Factor Activity,"enriched in untreated DA neurons, NOM p-val 0.35",−1.022
same,NES: Rna Helicase Activity,"enriched in untreated DA neurons, NOM p-val 0.365854",−1.053
same,NES: Growth Factor Activity,"enriched in untreated DA neurons, NOM p-val 0.367347",−1.079
same,NES: Small Gtpase Regulator Activity,"enriched in untreated DA neurons, NOM p-val 0.387097",−1.038
same,NES: Phosphotransferase Activity Phosphate Group As Acceptor,"enriched in untreated DA neurons, NOM p-val 0.431818",−1.058
same,NES: Protein Tyrosine Phosphatase Activity,"enriched in untreated DA neurons, NOM p-val 0.432432",−1.019
same,NES: Peptidase Activity,[6],−0.9811
same,NES: Tubulin Binding,[6],−0.9894
same,NES: Cytokine Binding,"enriched in untreated DA neurons, NOM p-val 0.459459",−0.9644
same,NES: Gtpase Regulator Activity,"enriched in untreated DA neurons, NOM p-val 0.461538",−0.9685
same,NES: Actin Binding,"enriched in untreated DA neurons, NOM p-val 0.464286",−1.007
same,NES: Transferase Activity Transferring One Carbon Groups,"enriched in untreated DA neurons, NOM p-val 0.466667",−0.9965
same,NES: Receptor Binding,"enriched in untreated DA neurons, NOM p-val 0.47619",−0.9865
same,NES: Protein Serine Threonine Phosphatase Activity,"enriched in untreated DA neurons, NOM p-val 0.48718",−0.9907
same,NES: Polysaccharide Binding,"enriched in untreated DA neurons, NOM p-val 0.5",−0.9231
same,NES: Atp Dependent Rna Helicase Activity,"enriched in untreated DA neurons, NOM p-val 0.52381",−1.022
same,NES: Sh3 Sh2 Adaptor Activity,"enriched in untreated DA neurons, NOM p-val 0.542857",−0.8755
same,NES: Pattern Binding,"enriched in untreated DA neurons, NOM p-val 0.567568",−0.9438
same,NES: Glycosaminoglycan Binding,"enriched in untreated DA neurons, NOM p-val 0.571429",−0.9097
same,NES: Phosphoric Monoester Hydrolase Activity,"enriched in untreated DA neurons, NOM p-val 0.612903",−0.9735
same,NES: Hydrolase Activity Acting On Carbon Nitrogen But Not Peptide Bonds,"enriched in untreated DA neurons, NOM p-val 0.634146",−0.8501
same,NES: Cofactor Binding,"enriched in untreated DA neurons, NOM p-val 0.636364",−0.8571
same,NES: Protein Tyrosine Kinase Activity,"enriched in untreated DA neurons, NOM p-val 0.657143",−0.8381
same,NES: Oxidoreductase Activity Go 0016705,"enriched in untreated DA neurons, NOM p-val 0.675676",−0.8606
same,NES: Growth Factor Binding,"enriched in untreated DA neurons, NOM p-val 0.705882",−0.8342
same,NES: Signal Sequence Binding,"enriched in untreated DA neurons, NOM p-val 0.707317",−0.8186
same,NES: Cysteine Type Peptidase Activity,"enriched in untreated DA neurons, NOM p-val 0.714286",−0.844
same,NES: Dna Dependent Atpase Activity,"enriched in untreated DA neurons, NOM p-val 0.783784",−0.8332
same,NES: Cysteine Type Endopeptidase Activity,[7],−0.8093
same,NES: Oxidoreductase Activity,[7],−0.9148
same,NES: Organic Acid Transmembrane Transporter Activity,"enriched in untreated DA neurons, NOM p-val 0.833333",−0.7234
same,NES: Lipid Binding,"enriched in untreated DA neurons, NOM p-val 0.852941",−0.7964
same,NES: Ribonuclease Activity,"enriched in untreated DA neurons, NOM p-val 0.875",−0.6173
same,NES: Protein Kinase Regulator Activity,"enriched in untreated DA neurons, NOM p-val 0.885714",−0.7344
same,NES: Rna Splicing Factor Activity Transesterification Mechanism,"enriched in untreated DA neurons, NOM p-val 0.891892",−0.5675
same,NES: Specific Rna Polymerase Ii Transcription Factor Activity,"enriched in untreated DA neurons, NOM p-val 0.904762",−0.6412
same,NES: Isomerase Activity,[8],−0.6048
same,NES: Transcription Activator Activity,[8],−0.8411
same,NES: Kinase Regulator Activity,"enriched in untreated DA neurons, NOM p-val 0.911765",−0.6989
same,NES: Phospholipid Binding,"enriched in untreated DA neurons, NOM p-val 0.914894",−0.6869
same,NES: Atpase Activity Coupled,"enriched in untreated DA neurons, NOM p-val 0.925926",−0.7071
same,NES: Carboxylic Acid Transmembrane Transporter Activity,"enriched in untreated DA neurons, NOM p-val 0.947368",−0.696
same,NES: Phosphoinositide Binding,"enriched in untreated DA neurons, NOM p-val 0.953488",−0.5604
same,NES: Amino Acid Transmembrane Transporter Activity,[9],−0.4938
same,NES: Serine Hydrolase Activity,[9],−0.6304
same,NES: Hormone Receptor Binding,"enriched in untreated DA neurons, NOM p-val 0.969697",−0.4774
same,NES: Protein Heterodimerization Activity,"enriched in untreated DA neurons, NOM p-val 0.971429",−0.7909
same,NES: Oxidoreductase Activity Acting On Nadh Or Nadph,"enriched in untreated DA neurons, NOM p-val 0.975",−0.4995
same,NES: Serine Type Peptidase Activity,"enriched in untreated DA neurons, NOM p-val 0.97561",−0.6529
same,NES: Amine Transmembrane Transporter Activity,[10],−0.4108
same,NES: Nucleotidyltransferase Activity,[10],−0.497
same,NES: Structural Constituent Of Ribosome,[10],−0.2676
same,NES: Serine Type Endopeptidase Activity,"enriched in untreated DA neurons, NOM p-val […]",−0.6588
